Patent EP1198478B1, “SOMATOSTATIN ANALOGS AND THEIR USE FOR THE TREATMENT OF CANCER” (Dabur Research Foundation, priority 2000, dated 2002)

Legend:
Type in all cases: cell-based
Settings in all cases: 48 hours
HeP2 (Laryngeal) = assay: MTT cytotoxicity assay, HeP2 cells
Source text: (§1) The cytotoxic effect of peptides SEQ ID NO: 2, SEQ ID NO: 3, SEQ ID NO: 6, and SEQ ID NO: 9, was studied by MTT assay which is based on the principle of uptake of MTT [3-[4,5-dimethylthiazol-2-yl]-2,5-diphenyl tetrazolium bromide], a tetrazolium salt by the metabolically active cells where it is metabolized by active mitochondria into a blue colored formazan product which can be read spectrophotometrically. Briefly, tumor cells PTC (primary human colon cancer cell line), KB (Oral squamous), U87MG (Glioblastoma), HBL100 (Breast), HeP2 (Laryngeal), ECV304 (Endothelial), PA-1 (Ovary) and L132 (Lung) were incubated with the peptide analogs for 48 hours at 37°C in a 96-well culture plate, followed by the addition of 100 µg MTT and further incubation of 1 hour. The formazan crystals formed inside the cells were dissolved with a detergent comprising 10% Sodium dodecyl sulfate and 0.01 N HCl and optical density read on a multiscan ELISA reader. The optical density was directly proportional to the number of proliferating and metabolically active cells.

PA-1 (Ovary) = assay: MTT cytotoxicity assay, PA-1 cells
Source text: as §1

L132 (Lung) = assay: MTT cytotoxicity assay, L132 cells
Source text: as §1

KB (Oral squamous) = assay: MTT cytotoxicity assay, KB cells
Source text: as §1

ECV304 (Endothelial) = assay: MTT cytotoxicity assay, ECV304 cells
Source text: as §1

HBL100 (Breast) = assay: MTT cytotoxicity assay, HBL100 cells
Source text: as §1

U87MG (Glioblastoma) = assay: MTT cytotoxicity assay, U87MG cells
Source text: as §1

[1] = system: PTC (primary human colon cancer cell line); assay: MTT cytotoxicity assay, PTC cells
Source text: as §1

Work on “D-Phe-Cys-Tyr-D-Trp-Orn-Aib-Pen-Thr-NH2 [SEQ ID NO: 9]” yielded a Percentage cytotoxicity (HeP2 (Laryngeal); 1nM) of 15.6 ± 3.6%, a Percentage cytotoxicity (HeP2 (Laryngeal); 10 nM) of 21.4 ± 4.4% and a Percentage cytotoxicity (HeP2 (Laryngeal); 1µM) of 19.9 ± 2.4%. For the same substance, the Percentage cytotoxicity (HeP2 (Laryngeal); 100n M) was 27.9 ± 2.5%, the Percentage cytotoxicity (PA-1 (Ovary); 1nM) was 4.6 ± 1.0% and the Percentage cytotoxicity (PA-1 (Ovary); 10 nM) was 12.8 ± 1.4%. It also gave a Percentage cytotoxicity (PA-1 (Ovary); 1µM) of 16.6 ± 3.1%, a Percentage cytotoxicity (PA-1 (Ovary); 100n M) of 22.7 ± 2.2% and a Percentage cytotoxicity (L132 (Lung); 1nM) of 14.9 ± 2.6%. For the same substance, the Percentage cytotoxicity (L132 (Lung); 10 nM) was 26.1 ± 4.8%, the Percentage cytotoxicity (L132 (Lung); 1µM) was 12.9 ± 1.8% and the Percentage cytotoxicity (L132 (Lung); 100n M) was 22.8 ± 2.6%. The Percentage cytotoxicity (KB (Oral squamous); 1nM) was 28.0 ± 1.6%, the Percentage cytotoxicity (KB (Oral squamous); 10 nM) was 27.0 ± 4.8% and the Percentage cytotoxicity (KB (Oral squamous); 1µM) was 12.0 ± 1.2%. For the same substance, the Percentage cytotoxicity (KB (Oral squamous); 100n M) was 18.0 ± 5.2%, the Percentage cytotoxicity (ECV304 (Endothelial); 1nM) was 18.0 ± 2.9% and the Percentage cytotoxicity (ECV304 (Endothelial); 10 nM) was 23.9 ± 3.1%. It also gave a Percentage cytotoxicity (ECV304 (Endothelial); 1µM) of 12.9 ± 1.6%, a Percentage cytotoxicity (ECV304 (Endothelial); 100n M) of 19.9 ± 2.6% and a Percentage cytotoxicity (HBL100 (Breast); 1nM) of 26.9 ± 2.6%. The Percentage cytotoxicity (HBL100 (Breast); 10 nM) was 23.9 ± 4.4%, the Percentage cytotoxicity (HBL100 (Breast); 1µM) was 7.9 ± 1.2% and the Percentage cytotoxicity (HBL100 (Breast); 100n M) was 14.9 ± 2.2%. It also gave a Percentage cytotoxicity (U87MG (Glioblastoma); 1nM) of 13.9 ± 2.5%, a Percentage cytotoxicity (U87MG (Glioblastoma); 10 nM) of 29.7 ± 2.4% and a Percentage cytotoxicity (U87MG (Glioblastoma); 1µM) of 42.9 ± 1.2%. It also gave a Percentage cytotoxicity (U87MG (Glioblastoma); 100n M) of 53.3 ± 1.4%.

Work on “D-Phe-Cys-Tyr-D-Trp-Lys-Ac5c-Pen-Thr-NH2 [SEQ ID NO: 6]” yielded a Percentage cytotoxicity (HeP2 (Laryngeal); 1nM) of 8.0 ± 3.6%, a Percentage cytotoxicity (HeP2 (Laryngeal); 10 nM) of 14.8 ± 4.4% and a Percentage cytotoxicity (HeP2 (Laryngeal); 1µM) of 10.6 ± 2.4%. The Percentage cytotoxicity (HeP2 (Laryngeal); 100n M) was 11.0 ± 2.5%, the Percentage cytotoxicity (PA-1 (Ovary); 1nM) was 19.4 ± 1.0% and the Percentage cytotoxicity (PA-1 (Ovary); 10 nM) was 25.9 ± 1.4%. For the same substance, the Percentage cytotoxicity (PA-1 (Ovary); 1µM) was 8.0 ± 3.3%, the Percentage cytotoxicity (PA-1 (Ovary); 100n M) was 22.6 ± 2.2% and the Percentage cytotoxicity (L132 (Lung); 1nM) was 14.9 ± 1.2%. It also gave a Percentage cytotoxicity (L132 (Lung); 10 nM) of 25.7 ± 4.8%, a Percentage cytotoxicity (L132 (Lung); 1µM) of 13.7 ± 5.8% and a Percentage cytotoxicity (L132 (Lung); 100n M) of 22.9 ± 2.6%. The Percentage cytotoxicity (KB (Oral squamous); 1nM) was 28.0 ± 1.2%, the Percentage cytotoxicity (KB (Oral squamous); 10 nM) was 23.0 ± 4.8% and the Percentage cytotoxicity (KB (Oral squamous); 1µM) was 12.9 ± 1.1%. For the same substance, the Percentage cytotoxicity (KB (Oral squamous); 100n M) was 19.0 ± 5.2%, the Percentage cytotoxicity (ECV304 (Endothelial); 1nM) was 18.9 ± 3.9% and the Percentage cytotoxicity (ECV304 (Endothelial); 10 nM) was 24.9 ± 3.8%. For the same substance, the Percentage cytotoxicity (ECV304 (Endothelial); 1µM) was 7.9 ± 1.6%, the Percentage cytotoxicity (ECV304 (Endothelial); 100n M) was 13.9 ± 2.9% and the Percentage cytotoxicity (HBL100 (Breast); 1nM) was 15.7 ± 4.5%. The Percentage cytotoxicity (HBL100 (Breast); 10 nM) was 14.5 ± 2.8%, the Percentage cytotoxicity (HBL100 (Breast); 1µM) was 8.0 ± 1.4% and the Percentage cytotoxicity (HBL100 (Breast); 100n M) was 12.6 ± 3.2%. The Percentage cytotoxicity (U87MG (Glioblastoma); 1nM) was 39.0 ± 3.5%, the Percentage cytotoxicity (U87MG (Glioblastoma); 10 nM) was 40.4 ± 2.4% and the Percentage cytotoxicity (U87MG (Glioblastoma); 1µM) was 39.5 ± 1.2%. For the same substance, the Percentage cytotoxicity (U87MG (Glioblastoma); 100n M) was 42.9 ± 1.4%, the Percentage cytotoxicity ([1]; 1nM) was 12±1.5% and the Percentage cytotoxicity ([1]; 10 nM) was 11 ± 7.1%. The Percentage cytotoxicity ([1]; 1µM) was 9 ± 2.1% and the Percentage cytotoxicity ([1]; 100n M) was 8 ± 5.2%.
